The source of these data is US10894786B2, “Substituted pyrazole derivatives as selective CDK12/13 inhibitors” (Aurigene Discovery Technologies Limited, priority 2018, dated 2021).

Assay [1] has as its target T1, CDK12 (Homo sapiens (Human), UniProt Q9NYV4). Put plainly: Biochemical assay for CDK12 (Kd determination), kinase-tagged phage/qPCR competition binding. As for the experimental part: Kinase-tagged T7 phage strains were grown in parallel in 24-well blocks in an E. coli host derived from the BL21 strain. E. coli were grown to log-phase and infected with T7 phage from a frozen stock (multiplicity of infection=0.4) and incubated with shaking at 32° C. until lysis (90-150 minutes). The lysates were centrifuged (6,000×g) and filtered (0.2 μm) to remove cell debris. The remaining kinases were produced in HEK-293 cells and subsequently tagged with DNA for qPCR detection. […] The liganded beads were blocked with excess biotin and washed with blocking buffer (SeaBlock (Pierce), 1% BSA, 0.05% Tween 20, 1 mM DTT) to remove unbound ligand and to reduce non-specific phage binding. […] Test compounds were prepared as 40× stocks in 100% DMSO and directly diluted into the assay. All reactions were performed in polypropylene 384-well plates in a final volume of 0.02 ml. […] The kinase concentration in the eluates was measured by qPCR.
Target sequence in this assay (Q9NYV4 whole entry, species assumed): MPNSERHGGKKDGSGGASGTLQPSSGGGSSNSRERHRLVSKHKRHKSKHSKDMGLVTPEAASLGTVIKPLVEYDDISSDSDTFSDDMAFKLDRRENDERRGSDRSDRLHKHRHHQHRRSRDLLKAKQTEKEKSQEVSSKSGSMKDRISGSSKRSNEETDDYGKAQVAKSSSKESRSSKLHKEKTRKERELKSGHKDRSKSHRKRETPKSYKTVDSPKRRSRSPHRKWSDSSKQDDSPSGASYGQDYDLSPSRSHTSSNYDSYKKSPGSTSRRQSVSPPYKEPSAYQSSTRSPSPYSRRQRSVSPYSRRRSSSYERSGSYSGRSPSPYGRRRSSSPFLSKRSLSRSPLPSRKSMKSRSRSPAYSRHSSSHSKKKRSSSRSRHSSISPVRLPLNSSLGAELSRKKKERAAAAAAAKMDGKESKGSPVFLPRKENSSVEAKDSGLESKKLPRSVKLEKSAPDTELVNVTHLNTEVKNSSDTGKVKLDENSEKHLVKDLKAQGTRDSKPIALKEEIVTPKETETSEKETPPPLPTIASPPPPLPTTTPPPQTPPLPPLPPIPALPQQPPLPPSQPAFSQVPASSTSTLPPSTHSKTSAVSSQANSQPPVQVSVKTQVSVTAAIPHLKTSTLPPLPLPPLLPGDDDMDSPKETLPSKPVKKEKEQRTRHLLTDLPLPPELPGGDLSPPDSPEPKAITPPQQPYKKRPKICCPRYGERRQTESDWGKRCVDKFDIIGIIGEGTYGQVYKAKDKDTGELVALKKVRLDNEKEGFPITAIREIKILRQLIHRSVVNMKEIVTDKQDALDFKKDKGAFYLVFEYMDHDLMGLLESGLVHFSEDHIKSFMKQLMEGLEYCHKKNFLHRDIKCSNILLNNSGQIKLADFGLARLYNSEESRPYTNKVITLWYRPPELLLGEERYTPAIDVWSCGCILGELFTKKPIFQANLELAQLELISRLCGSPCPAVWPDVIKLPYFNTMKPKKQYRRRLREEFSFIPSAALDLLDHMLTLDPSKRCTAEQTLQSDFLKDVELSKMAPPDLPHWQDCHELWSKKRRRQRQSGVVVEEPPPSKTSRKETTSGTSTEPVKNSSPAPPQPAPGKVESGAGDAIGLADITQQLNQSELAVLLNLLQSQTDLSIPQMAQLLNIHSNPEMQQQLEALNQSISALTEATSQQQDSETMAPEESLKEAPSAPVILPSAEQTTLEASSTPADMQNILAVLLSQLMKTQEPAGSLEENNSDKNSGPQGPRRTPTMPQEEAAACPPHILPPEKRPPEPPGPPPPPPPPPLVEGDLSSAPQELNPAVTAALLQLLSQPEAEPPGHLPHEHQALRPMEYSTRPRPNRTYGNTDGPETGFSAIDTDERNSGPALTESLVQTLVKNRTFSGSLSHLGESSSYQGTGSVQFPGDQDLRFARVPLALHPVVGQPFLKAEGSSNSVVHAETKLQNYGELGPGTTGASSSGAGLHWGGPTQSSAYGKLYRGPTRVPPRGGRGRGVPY

Another assay concerns the target CDK13 (Homo sapiens (Human), UniProt Q14004). The assay is described as follows: Biochemical assay for CDK13, LanthaScreen Eu Kinase Binding Assay. The following applies: for IC50: kinase tracer 236 100 nM; for Ratio CDK7/CDK13: ratio of IC50. The text has this: Binding of an inhibitor to the kinase competes for binding with the tracer, resulting in a loss of FRET signal.
On the technique in general: TR-FRET usually uses a lanthanide donor and a delayed reading to cut background.

Assay [2] concerns the target T1, CDK12. Put plainly: Biochemical assay for CDK12 (IC50 determination), LANCE TR-FRET. As to conditions: for IC50: ATP 100 μM, 60 min pre-incubation. As for the experimental part: The inhibitory activity of the test compounds was assessed by the LANCE TR-FRET assay, which detects the ATP-dependent phosphorylation of an ULight-4E-BP1 (Thr37/Thr46) substrate peptide (100 nM) by CDK12 (30 nM). Briefly, the enzyme reaction was run in reaction buffer (25 mM HEPES (pH 7.5), 10 mM MgCl2, 0.01% BSA, 0.01% Triton x, 1 mM DTT). The assay was performed in 384-well plate format. The end concentration of the ATP substrate was 100 μM, and that of the ULight-4E-BP1 (Thr37/Thr46) substrate peptide was 100 nM, and of CDK12 was 30 nM. Pre-incubation of the compound and enzyme was performed for 60 min at room temperature. After 60 min incubation at room temperature, the reaction was terminated by the addition of 40 mM EDTA and 0.5 nM Eu-labeled anti-phospho-eIF4E-binding protein (Thr37/46) antibody in LANCE detection buffer. […] The readout was calculated as (acceptor counts/donor counts)×1000. The IC50 values were derived by fitting a sigmoidal dose-response curve to a plot of assay readout over inhibitor concentration.
Target sequence in this assay (Q9NYV4 whole entry, looked up, species assumed): as the sequence (Q9NYV4 whole entry, species assumed) above
Target sequence in this assay (O75909 whole entry partner, looked up, species assumed): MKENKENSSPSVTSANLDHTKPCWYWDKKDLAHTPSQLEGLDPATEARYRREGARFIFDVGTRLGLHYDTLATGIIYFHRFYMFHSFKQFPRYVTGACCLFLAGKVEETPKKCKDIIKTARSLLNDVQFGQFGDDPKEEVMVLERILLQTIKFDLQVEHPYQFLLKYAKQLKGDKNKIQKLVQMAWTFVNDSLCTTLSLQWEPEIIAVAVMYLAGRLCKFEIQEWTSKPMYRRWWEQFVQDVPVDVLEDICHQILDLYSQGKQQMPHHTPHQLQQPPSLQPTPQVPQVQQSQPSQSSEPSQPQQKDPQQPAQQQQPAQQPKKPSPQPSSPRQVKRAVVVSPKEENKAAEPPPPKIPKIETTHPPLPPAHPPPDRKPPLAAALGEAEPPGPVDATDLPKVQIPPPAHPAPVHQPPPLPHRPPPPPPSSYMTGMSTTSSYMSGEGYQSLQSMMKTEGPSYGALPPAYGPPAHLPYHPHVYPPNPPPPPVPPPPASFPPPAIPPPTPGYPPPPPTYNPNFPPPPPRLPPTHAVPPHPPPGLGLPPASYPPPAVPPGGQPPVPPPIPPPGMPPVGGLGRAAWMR

A further assay addresses CDK7 (Homo sapiens (Human), UniProt P50613). Put plainly: Biochemical assay for CDK7, LANCE TR-FRET. The following applies: ATP 1 mM/100 μM, 60 min pre-incubation; read-out: CDK 7 IC50. As for the experimental part:
The inhibitory activity of the test compounds was assessed by the LANCE TR-FRET assay, which detects the ATP-dependent phosphorylation of an ULight-myelin basic protein (MBP) substrate peptide (100 nM) by CDK7 (10 nM). Briefly, the enzyme reaction was run in reaction buffer (20 mM HEPES (pH 7.5), 10 mM MgCl2, 0.01% Triton x, 100 μM Sodium Orthovanadate, 1 mM DTT). The assay was performed in 384-well plate. The end concentration of the ATP substrate was 1 mM/100 μM, and that of the ULight-MBP substrate peptide was 100 nM, and of CDK7 was 10 nM. Pre-incubation of the compound and enzyme was performed for 60 min at room temperature. After 60 min incubation at room temperature, the reaction was terminated by the addition of 40 mM EDTA and 1 nM Eu-labeled anti-phospho-MBP-binding protein antibody in the buffer. […] The readout was calculated as (acceptor counts/donor counts)×1000. The IC50 values were derived by fitting a sigmoidal dose-response curve to a plot of assay readout over inhibitor concentration.

The target of assay [3] is T1, CDK12. Put plainly: CDK12 plate based target engagement assay in Jurkat cells. In kind it is cell-based. As to conditions: Jurkat cells, 6 hours. As for the experimental part: Jurkat cells were treated with varying concentrations of the compound for 6 hours. The DMSO concentration was maintained at 0.1%. Cells were harvested and lysed. 200 μg of the lysate was incubated with 1 μM Bio-THZ531 in the presence of 1 mM DTT and incubated on a rocker at 4° C. overnight. 100 μL of this sample was added to pre-washed streptavidin coated plates and incubated at room temperature on a rocker for 2 hours. The plates were washed and incubated with CDK12 antibody for overnight at 4° C. Next day the plate was washed and incubated for 2 hours with HRP labelled anti rabbit secondary antibody. Bio-THZ531 bound CDK12 was determined using TMB substrate. […] Percentage CDK12 occupancy with the test compound was calculated over untreated control. Occupancy 50 was calculated by fitting the dose response data to sigmoidal curve fitting equation using GraphPad Prism software V5.
Target sequence in this assay (Q9NYV4 whole entry, looked up): as the sequence (Q9NYV4 whole entry, species assumed) above
Target sequence in this assay (O75909 whole entry partner, looked up): as the sequence (O75909 whole entry partner, looked up, species assumed) above

One may read the Kd as the free concentration of one partner at which half of the binding sites on the other are occupied at equilibrium, for simple one-to-one binding. Read a low Kd as higher affinity. A word on the IC50: it is the concentration at which inhibition is half-maximal.

CDK7, sequence (P50613 whole entry, looked up, species assumed): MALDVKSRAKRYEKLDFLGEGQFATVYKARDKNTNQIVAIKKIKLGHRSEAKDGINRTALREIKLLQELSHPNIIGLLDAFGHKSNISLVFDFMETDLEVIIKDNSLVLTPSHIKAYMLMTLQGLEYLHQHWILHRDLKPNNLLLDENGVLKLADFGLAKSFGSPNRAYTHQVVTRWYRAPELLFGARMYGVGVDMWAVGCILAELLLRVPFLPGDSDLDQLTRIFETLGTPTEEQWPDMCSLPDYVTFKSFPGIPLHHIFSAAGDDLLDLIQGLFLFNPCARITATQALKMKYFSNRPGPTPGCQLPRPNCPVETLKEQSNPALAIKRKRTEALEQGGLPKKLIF
CDK7, sequence (P51946 whole entry partner, looked up, species assumed): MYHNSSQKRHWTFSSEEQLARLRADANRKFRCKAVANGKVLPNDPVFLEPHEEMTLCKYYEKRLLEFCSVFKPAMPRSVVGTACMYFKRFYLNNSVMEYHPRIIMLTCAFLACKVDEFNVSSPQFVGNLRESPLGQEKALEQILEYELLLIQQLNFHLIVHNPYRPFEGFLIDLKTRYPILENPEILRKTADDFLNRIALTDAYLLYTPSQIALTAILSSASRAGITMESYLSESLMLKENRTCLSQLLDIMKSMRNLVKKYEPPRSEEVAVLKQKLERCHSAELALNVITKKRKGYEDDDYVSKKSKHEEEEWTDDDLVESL
CDK7, sequence (P51948 whole entry partner, looked up, species assumed): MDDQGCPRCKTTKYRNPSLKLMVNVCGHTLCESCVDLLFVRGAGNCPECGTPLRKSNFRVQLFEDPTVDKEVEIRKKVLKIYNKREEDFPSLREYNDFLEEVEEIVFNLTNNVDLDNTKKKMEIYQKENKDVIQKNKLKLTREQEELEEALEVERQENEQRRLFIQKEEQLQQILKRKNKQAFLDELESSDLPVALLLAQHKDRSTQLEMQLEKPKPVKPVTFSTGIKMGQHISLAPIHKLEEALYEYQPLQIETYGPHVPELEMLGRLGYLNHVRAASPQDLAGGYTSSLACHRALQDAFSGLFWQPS
CDK13, sequence (Q14004 whole entry, looked up, species assumed): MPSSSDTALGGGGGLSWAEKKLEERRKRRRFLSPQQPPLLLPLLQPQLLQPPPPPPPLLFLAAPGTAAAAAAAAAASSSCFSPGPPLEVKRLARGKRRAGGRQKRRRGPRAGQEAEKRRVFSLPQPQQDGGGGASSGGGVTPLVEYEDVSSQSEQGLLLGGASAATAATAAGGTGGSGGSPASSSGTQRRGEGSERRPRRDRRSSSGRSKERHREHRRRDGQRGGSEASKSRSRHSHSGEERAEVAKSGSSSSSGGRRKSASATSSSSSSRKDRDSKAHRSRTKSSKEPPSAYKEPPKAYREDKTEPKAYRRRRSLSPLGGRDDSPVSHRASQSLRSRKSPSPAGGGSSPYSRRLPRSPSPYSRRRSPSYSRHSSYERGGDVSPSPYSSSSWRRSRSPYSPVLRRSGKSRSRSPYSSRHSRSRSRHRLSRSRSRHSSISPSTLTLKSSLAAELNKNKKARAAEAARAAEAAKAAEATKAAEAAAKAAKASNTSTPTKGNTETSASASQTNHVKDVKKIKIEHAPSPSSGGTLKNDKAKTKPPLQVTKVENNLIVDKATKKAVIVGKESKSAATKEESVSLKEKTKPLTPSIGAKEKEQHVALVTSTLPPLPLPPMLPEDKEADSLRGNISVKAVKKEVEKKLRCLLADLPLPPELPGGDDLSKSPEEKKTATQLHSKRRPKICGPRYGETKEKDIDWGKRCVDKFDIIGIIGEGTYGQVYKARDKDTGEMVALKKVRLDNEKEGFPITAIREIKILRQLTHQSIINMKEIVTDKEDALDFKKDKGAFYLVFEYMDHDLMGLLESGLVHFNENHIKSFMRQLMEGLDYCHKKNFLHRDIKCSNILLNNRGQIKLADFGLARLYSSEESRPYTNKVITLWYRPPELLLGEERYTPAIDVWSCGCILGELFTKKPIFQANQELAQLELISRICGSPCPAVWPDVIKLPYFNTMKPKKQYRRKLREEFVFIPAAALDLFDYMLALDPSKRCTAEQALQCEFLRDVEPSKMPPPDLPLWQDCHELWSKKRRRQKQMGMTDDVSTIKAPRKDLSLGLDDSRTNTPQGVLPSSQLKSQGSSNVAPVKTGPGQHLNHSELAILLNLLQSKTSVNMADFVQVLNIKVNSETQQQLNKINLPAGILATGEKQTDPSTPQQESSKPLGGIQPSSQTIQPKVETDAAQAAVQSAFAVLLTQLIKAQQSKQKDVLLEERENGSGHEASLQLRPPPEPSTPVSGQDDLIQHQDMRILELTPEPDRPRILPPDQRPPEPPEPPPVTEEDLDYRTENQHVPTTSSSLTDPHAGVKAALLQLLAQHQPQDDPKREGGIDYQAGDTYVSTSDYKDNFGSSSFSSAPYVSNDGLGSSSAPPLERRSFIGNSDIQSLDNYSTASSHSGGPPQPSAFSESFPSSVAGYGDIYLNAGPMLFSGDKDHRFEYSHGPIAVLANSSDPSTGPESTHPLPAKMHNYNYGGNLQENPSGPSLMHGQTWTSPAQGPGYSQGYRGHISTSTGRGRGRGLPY
CDK13, sequence (O75909 whole entry partner, looked up, species assumed): as the sequence (O75909 whole entry partner, looked up, species assumed) above

With `C=CC(=O)N1CC=C(c2ccc(C(C)C(=O)Nc3cc(C4CC4)[nH]n3)cn2)CC1` (single isomer, unassigned) [Compound 5, 2-(1′-acryloyl-1′,2′,3′,6′-tetrahydro-[2,4′-bipyridin]-5-yl)-N-(5-cyclopropyl-1H-pyrazol-3-yl)propanamide], the Kd at CDK12 [1] lay in the range of 25 to 100 nM. The IC50 on CDK13 is 77 nM; at CDK12 [2] it was 1310 nM; on CDK7 it was > 10000 nM. Besides, at CDK13, the “Ratio CDK7/CDK13” value is reported as 129.87. For the same compound, the “Ratio CDK7/CDK12” value at CDK12 [2] was 7.64.
Take `C=CC(=O)NC1CCC(c2ccc(C(C)C(=O)Nc3cc(C4CC4)n[nH]3)cc2)CC1` (single isomer, unassigned) [Compound 10, N-(4-(4-(1-((5-cyclopropyl-1H-pyrazol-3-yl)amino)-1-oxopropan-2-yl)phenyl)cyclohexyl)acrylamide]: at CDK12 [1], the Kd is < 25 nM. The results for the IC50 on CDK13, on CDK12 [2] and on CDK7 were 18 nM, 740 nM and 5490 nM, respectively.
Turning to `C=CC(=O)NC1CCC(c2ccc(C(C)C(=O)Nc3cc(C4CC4)n[nH]3)cc2)CC1` (single isomer, unassigned) [Compound 11, N-(4-(4-(1-((5-cyclopropyl-1H-pyrazol-3-yl)amino)-1-oxopropan-2-yl)phenyl)cyclohexyl)acrylamide], the Kd at CDK12 [1] lay within 25 to 100 nM. The values for the IC50 on CDK13, against CDK12 [2] and on CDK7 were 45 nM, 1020 nM and 3650 nM, respectively.
As for `C=CC(=O)N1CCN(c2ccc(C(C)C(=O)Nc3cc(C4CC4)[nH]n3)cc2)CC1` (single isomer, unassigned) [Compound 18, 2-(4-(4-acryloylpiperazin-1-yl)phenyl)-N-(5-cyclopropyl-1H-pyrazol-3-yl)propanamide], the Kd on CDK12 [1] lay in the range of 25 to 100 nM. Besides, the IC50 at CDK13 came out at 11.7 nM; against CDK12 [2], 238 nM; at CDK7 it was 2320 nM.
Consider `C=CC(=O)N1CC=C(c2ccc(C(C(=O)Nc3cc(C4CC4)[nH]n3)C(C)C)cc2)CC1` (stereo not drawn) [Compound 3, 2-(4-(1-acryloyl-1,2,3,6-tetrahydropyridin-4-yl)phenyl)-N-(5-cyclopropyl-1H-pyrazol-3-yl)-3-methylbutanamide], for which the Kd on CDK12 [1] is > 100 nM. Further, at CDK13, the IC50 came to 101 nM and the “Ratio CDK7/CDK13” value came to 5.0. For the same compound, at CDK7, the IC50 is 506 nM.
Regarding `C=CC(=O)N1CC=C(c2ccc(C(C)C(=O)Nc3cc(C4CC4)[nH]n3)cn2)CC1` (stereo not drawn) [Compound 4, 2-(1′-acryloyl-1′,2′,3′,6′-tetrahydro-[2,4′-bipyridin]-5-yl)-N-(5-cyclopropyl-1H-pyrazol-3-yl)propanamide], the Kd at CDK12 [1] is < 25 nM. Also, on CDK13, the IC50 amounted to 3 nM and the “Ratio CDK7/CDK13” value is reported as 570.0. At CDK12 [2], the “Ratio CDK7/CDK12” value stood at 23.75 and it took 72 nM to reach half-maximal inhibition (IC50). Also, the IC50 on CDK7 worked out at 1710 nM.
Consider `C=CC(=O)N1CC=C(c2ccc(C(C(=O)Nc3cc(C4CC4)[nH]n3)C(C)C)cn2)CC1` (stereo not drawn) [Compound 7, 2-(1′-acryloyl-1′,2′,3′,6′-tetrahydro-[2,4′-bipyridin]-5-yl)-N-(5-cyclopropyl-1H-pyrazol-3-yl)-3-methylbutanamide], for which the Kd at CDK12 [1] was > 100 nM. Further, the IC50 at CDK13 came out at 398 nM; at CDK7, 744 nM. The “Ratio CDK7/CDK13” value at CDK13 worked out at 1.86.
As to `C=CC(=O)NC1CC=C(c2ccc(C(C)C(=O)Nc3cc(C4CC4)[nH]n3)cc2)CC1` (stereo not drawn) [Compound 8, N-(4′-(1 ((5-cyclopropyl-1H-pyrazol-3-yl)amino)-1-oxopropan-2-yl)-2,3,4,5-tetrahydro-[1,1′-biphenyl]-4-yl)acrylamide], the Kd on CDK12 [1] lay in the range of 25 to 100 nM. Also, the IC50 on CDK13 was found to be 19 nM; on CDK12 [2], 380 nM.
At CDK12 [1], `C=CC(=O)N1CCC=C(c2ccc(C(C)C(=O)Nc3cc(C4CC4)[nH]n3)cc2)CC1` (stereo not drawn) [Compound 9, 2-(4-(1-acryloyl-2,3,6,7-tetrahydro-1H-azepin-4-yl)phenyl)-N-(5-cyclopropyl-1H-pyrazol-3-yl)propanamide] showed a Kd of 25 to 100 nM. For the same compound, on CDK13, the IC50 stood at 21 nM and the “Ratio CDK7/CDK13” value was found to be 313.57. Also, on CDK12 [2], the “Ratio CDK7/CDK12” value came out at 27.43 and the half-inhibitory concentration (IC50) came to 240 nM. Also, on CDK7, the concentration for half-maximal inhibition (IC50) stood at 6580 nM.
As to `C=CC(=O)N1CCN(c2ccc(C(C)C(=O)Nc3cc(C4CC4)[nH]n3)cn2)CC1` (stereo not drawn) [Compound 20, 2-(6-(4-acryloylpiperazin-1-yl)pyridin-3-yl)-N-(5-cyclopropyl-1H-pyrazol-3-yl)propanamide], the Kd on CDK12 [1] was < 25 nM. The figures for the IC50 at CDK13, against CDK12 [2] and at CDK7 were 94 nM, 99 nM and 2090 nM, respectively. Further, the “Ratio CDK7/CDK13” value on CDK13 amounted to 22.23. Also, the “Ratio CDK7/CDK12” value at CDK12 [2] worked out at 21.11.
As for `C=CC(=O)NC1CCN(c2ccc(C(C)C(=O)Nc3cc(C4CC4)[nH]n3)cc2)CC1` (stereo not drawn) [Compound 21, N-(1-(4-(1-((5-cyclopropyl-1H-pyrazol-3-yl)amino)-1-oxopropan-2-yl)phenyl)piperidin-4-yl)acrylamide], at CDK12 [1], the Kd was < 25 nM. Also, the IC50 at CDK13 came out at 73 nM; against CDK12 [2], 235 nM.
For the compound `C=CC(=O)N1CCC=C(c2ccc(C(C)C(=O)Nc3cc(C4CC4)[nH]n3)cn2)C1` (stereo not drawn) [Compound 35, 2-(1′-acryloyl-1′,2′,5′,6′-tetrahydro-[2,3′-bipyridin]-5-yl)-N-(5-cyclopropyl-1H-pyrazol-3-yl)propanamide], the Kd on CDK12 [1] was < 25 nM. For the same compound, on CDK13, the IC50 was 6 nM and the “Ratio CDK7/CDK13” value is reported as 25.5. For the same compound, on CDK12 [2], the “Ratio CDK7/CDK12” value worked out at 5.1 and the IC50 was found to be 30 nM. In addition, the IC50 at CDK7 was determined as 153 nM.
For `C=CC(=O)N1CC=C(c2ccc(C(C)C(=O)Nc3cc(C4CC4)[nH]n3)cn2)C1` (stereo not drawn) [Compound 46, 2-(6-(1-acryloyl-2,5-dihydro-1H-pyrrol-3-yl)pyridin-3-yl)-N-(5-cyclopropyl-1H-pyrazol-3-yl)propanamide], on CDK12 [3], the “CDK12 Target Occupancy (Tocc50) μM in Jurkat cells” value (from here on “CDK12 Target Occupancy (Tocc50) μM”) was 0.003 µM. Further, the IC50 at CDK13 stood at 6.9 nM; against CDK12 [2] it was 32 nM.
Take `C#CC(=O)N1CCC=C(c2ccc(CC(=O)Nc3cc(C4CC4)[nH]n3)cn2)C1` [Compound 58, N-(5-cyclopropyl-1H-pyrazol-3-yl)-2-(1′-propioloyl-1′,2′,5′,6′-tetrahydro-[2,3′-bipyridin]-5-yl)acetamide]: the “CDK12 Target Occupancy (Tocc50) μM” value on CDK12 [3] was 0.0097 µM. Further, the IC50 at CDK13 is 84 nM; on CDK12 [2], 49 nM.
Take `C#CC(=O)N1CC=C(c2ccc(CC(=O)Nc3cc(C4CC4)[nH]n3)cn2)C1` [Compound 60, N-(5-cyclopropyl-1H-pyrazol-3-yl)-2-(6-(1-propioloyl-2,5-dihydro-1H-pyrrol-3-yl)pyridin-3-yl)acetamide]: the “CDK12 Target Occupancy (Tocc50) μM” value at CDK12 [3] amounted to 0.0088 µM. Besides, 12 nM corresponded to half-maximal inhibition at CDK12 [2] (IC50).
The matching figures for `N#CN1CCC=C(c2ccc(CC(=O)Nc3cc(C4CC4)[nH]n3)cn2)C1` [Compound 61, 2-(1′-cyano-1′,2′,5′,6′-tetrahydro-[2,3′-bipyridin]-5-yl)-N-(5-cyclopropyl-1H-pyrazol-3-yl)acetamide]: 0.007 µM and 6 nM.
